Test results published in the supplement of paper PMC11451515.

How the values were obtained:
Experiment in all cases: AUC of viability dose-response curve (% viability x log10 dose units); higher = less sensitive
Details in all cases: 48 h
[1] = test system: NOMO1
In short: (§1)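 Leukemia cells adapted to each medium were seeded at 500 or 1000 cells/well in 1536-well plates and dosed with library compounds in DMSO at 11 threefold doses from 47 μM to 0.79 nM for 48 h at 37°C. CellTiter-Glo One luminescence was normalised per plate to DMSO and cell-free wells, then fitted with a four-parameter log-logistic model over log10 doses. Area under the curve was taken from this fit by the trapezoidal rule, with curves above full viability scaled and curves failing quality control removed.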

[2] = test system: P12-Ichikawa
In short: as §1

[3] = test system: SEM cells
In short: as §1

[4] = RPMI 5 mM glucose + 10% dialyzed FBS

| SMILES | AUC of viability dose-response curve ([1]; HPLM + 10% dialyzed FBS) | AUC of viability dose-response curve ([1]; RPMI 5 mM glucose + 10% FBS) | AUC of viability dose-response curve [1, 4] | AUC of viability dose-response curve ([2]; HPLM + 10% dialyzed FBS) | AUC of viability dose-response curve ([2]; RPMI 5 mM glucose + 10% FBS) | AUC of viability dose-response curve [2, 4] | AUC of viability dose-response curve ([3]; HPLM + 10% dialyzed FBS) | AUC of viability dose-response curve ([3]; RPMI 5 mM glucose + 10% FBS) | AUC of viability dose-response curve [3, 4] |
| --- | --- | --- | --- | --- | --- | --- | --- | --- | --- |
| CC(C)C[C@@H](C=O)NC(=O)[C@H](CC(C)C)NC(=O)[C@H](CC(C)C)NC(=O)OCc1ccccc1 | 337 | 312 | 351 | 364 | 324 | 361 | 305 | 279 | 315 |
| COc1ccc(C2CNC(=O)C2)cc1OC1CCCC1 (stereo unspecified) | 465 | 460 | 465 | 470 | 472 | 450 | 455 | 453 | 448 |
| CCOC(=O)\C1=C(/C)N\C2=C(C1C3=CC=C(C=C3)C4=CC=CC=C4)\C(=O)CC(C)(C)C2 (stereo unspecified) | 438 | 465 | 447 | 457 | 457 | 444 | 461 | 451 | 450 |
| O=C(Nc1ccc(F)c(C(F)(F)F)c1)Nc1nnc(-c2ccncc2)s1 | 456 | 444 | 466 | 469 | 451 | 465 | 467 | 464 | 467 |
| CC(N)C12CC3CC(CC(C3)C1)C2 (stereo unspecified) | 453 | 437 | 443 | 449 | 456 | 455 | 468 | 447 | 477 |
| Nc1nc(N)c2nc(CNc3ccc(C(=O)NC(CCC(=O)O)C(=O)O)cc3)cnc2n1 (stereo unspecified) | 344 | 414 | 286 | 283 | 313 | 272 | 290 | 394 | 247 |
| CNC[C@H](O)c1ccc(O)c(O)c1 | 425 | 402 | 408 | 446 | 448 | 412 | – | – | – |
| S=P(N1CC1)(N1CC1)N1CC1 | 468 | 458 | 468 | 452 | 470 | 448 | 455 | 446 | 441 |
| Cc1cc(C(C)(C)C)c(O)c(C)c1CC1=NCCN1 | 432 | 419 | 422 | 454 | 444 | 429 | 360 | 392 | 400 |
| OC[C@H]1OCC(O1)[N@@]2C=CC(N)=NC2=O (stereo partly specified) | 465 | 463 | 475 | 458 | 458 | 446 | – | – | – |
| C#C[C@]1(O)CC[C@H]2[C@@H]3CCc4cc(O)ccc4[C@H]3CC[C@@]21C | 444 | 442 | 429 | 441 | 418 | 410 | 442 | 440 | 448 |
| OC1CCC(Nc2ncc3nc(Nc4c(F)cc(F)cc4F)n([C@@H]4CCOC4)c3n2)CC1 (stereo partly specified) | 465 | 446 | 448 | 468 | 465 | 468 | 474 | 452 | 458 |
| O=C(O)c1ccc2c(c1)nc(Nc1cccc(Cl)c1)c1ccncc12 | 425 | 437 | 441 | 453 | 437 | 429 | 421 | 412 | 406 |
| COc1ccc(-c2ccc3c(N4CCOC[C@@H]4C)nc(N4CCOC[C@@H]4C)nc3n2)cc1CO | 293 | 359 | 337 | 353 | 296 | 311 | 310 | 310 | 316 |
| C[S+]([O-])(=O)C1=CC=C(C=C1)C/2=C(/C(=O)OC2)C3=CC=CC=C3 | 465 | 463 | 445 | 468 | 449 | 472 | 466 | 431 | 453 |
| COc1cc2nccc(Oc3ccc(NC(=O)NC4CC4)c(Cl)c3)c2cc1C(N)=O | 439 | 448 | 445 | 429 | 429 | 430 | 378 | 378 | 359 |
| CC(C)C[C@H](NC(=O)[C@H](CCc1ccccc1)NC(=O)CN1CCOCC1)C(=O)N[C@@H](Cc1ccccc1)C(=O)N[C@@H](CC(C)C)C(=O)[C@@]1(C)CO1 | 177 | 152 | 169 | 162 | 139 | 140 | – | – | – |
| Cc1c(NC(=O)OC[C@@H]2COCCN2)cn2ncnc(Nc3ccc4c(cnn4Cc4cccc(F)c4)c3)c12 | 379 | 410 | 397 | 422 | 401 | 417 | – | – | – |
| Cc1cn([C@@H]2O[C@H](CO)[C@@H](O)[C@@H]2F)c(=O)[nH]c1=O | 456 | 460 | 458 | – | – | – | 467 | 437 | 469 |
| CCn1c(-c2nonc2N)nc2cnc(Oc3cccc(NC(=O)c4ccc(OCCN5CCOCC5)cc4)c3)cc21 | 456 | 432 | 429 | 446 | 427 | 438 | 457 | 442 | 456 |
| CNC(=O)c1ccc(N2C(=S)N(c3ccc(C#N)c(C(F)(F)F)c3)C(=O)C23CCC3)cc1F | – | – | – | – | – | – | 425 | 408 | 411 |
| C/C=C1\C2C=C(C)CC1(N)c1ccc(=O)[nH]c1C2 (stereo unspecified) | 463 | 467 | 465 | 471 | 447 | 442 | 442 | 458 | 463 |
| CC(C)(C)c1[nH]cnc1/C=c1\[nH]c(=O)/c(=C/c2ccccc2)[nH]c1=O | 200 | 129 | 160 | – | – | – | – | – | – |
| O=C(c1ccc(Nc2nccc(-c3cc4ccccc4s3)n2)cc1)N1CCC(N2CCCC2)CC1 | 411 | 446 | 432 | 430 | 441 | 425 | 382 | 389 | 394 |

| SMILES | AUC of viability dose-response curve ([1]; HPLM + 10% dialyzed FBS) | AUC of viability dose-response curve ([1]; RPMI 5 mM glucose + 10% FBS) | AUC of viability dose-response curve [1, 4] | AUC of viability dose-response curve ([2]; HPLM + 10% dialyzed FBS) | AUC of viability dose-response curve ([2]; RPMI 5 mM glucose + 10% FBS) | AUC of viability dose-response curve [2, 4] | AUC of viability dose-response curve ([3]; HPLM + 10% dialyzed FBS) | AUC of viability dose-response curve ([3]; RPMI 5 mM glucose + 10% FBS) | AUC of viability dose-response curve [3, 4] |
| --- | --- | --- | --- | --- | --- | --- | --- | --- | --- |
| Cc1cnc(-c2cc(N3CCN(C(=O)CC[S+](C)(=O)[O-])CC3)ncc2Cl)c(C)c1 | 404 | 470 | 455 | 466 | 475 | 469 | 426 | 453 | 427 |
| CC(C)C(=O)Oc1ccc(CO)cc1[C@H](CCN(C(C)C)C(C)C)c1ccccc1 | – | – | – | 405 | 398 | 381 | 376 | 402 | 433 |
| COC1=CC=C(C=C1)C/2=C/OC3=C(C(=CC(=C3)O)O)C2=O | 460 | 474 | 453 | 465 | 441 | 453 | 463 | 436 | 435 |
| CSCC[C@@H](NC(=O)[C@@H](Cc1ccccc1)NC(=O)CNC(=O)CNC(=O)[C@@H](N)Cc1ccc(O)cc1)C(=O)O | – | – | – | – | – | – | 406 | 389 | 409 |
| C[C@]12CC[C@@H]3c4ccc(O)cc4C[C@@H](CCCCCCCCC[S+]([O-])CCCC(F)(F)C(F)(F)F)[C@H]3[C@@H]1CC[C@@H]2O (stereo partly specified) | 428 | 470 | 429 | 464 | 462 | 455 | 475 | 411 | 459 |
| Cc1cn(-c2cc(NC(=O)c3ccc(C)c(Nc4nccc(-c5cccnc5)n4)c3)cc(C(F)(F)F)c2)cn1 | 436 | 407 | 419 | 328 | 340 | 346 | 377 | 345 | 347 |
| CC1(C)O[C@@H]2C[C@H]3[C@@H]4CCC5=CC(=O)C=C[C@]5(C)[C@H]4[C@@H](O)C[C@]3(C)[C@]2(C(=O)CO)O1 | 474 | 445 | 454 | 391 | 357 | 331 | 313 | 353 | 318 |
| COc1cc2ncnc(Nc3cc(Br)c(O)c(Br)c3)c2cc1OC | 477 | 470 | 467 | 473 | 469 | 472 | 458 | 462 | 461 |
| C=C(C)[C@H]1Cc2c(ccc3c2O[C@@H]2COc4cc(OC)c(OC)cc4[C@@H]2C3=O)O1 | 389 | 399 | 413 | 376 | 335 | 366 | 370 | 337 | 379 |
| C=CC(=O)N1CCC[C@@H](n2nc(-c3ccc(Oc4ccccc4)cc3)c3c(N)ncnc32)C1 | 462 | 446 | 467 | 414 | 458 | 452 | 456 | 443 | 424 |
| Cc1cc2c(F)c(Oc3ncnn4cc(OC[C@@H](C)O)c(C)c34)ccc2[nH]1 | 459 | 453 | 446 | 442 | 454 | 448 | 394 | 372 | 380 |
| C[C@@H]1[C@H](O)[C@@H](C)/C=C/C=C/C=C/C=C/C=C/C=C/C=C/[C@H](O[C@@H]2O[C@H](C)[C@@H](O)[C@H](N)[C@@H]2O)C[C@@H]2O[C@](O)(C[C@@H](O)C[C@@H](O)[C@H](O)CC[C@@H](O)C[C@@H](O)CC(=O)O[C@H]1C)C[C@H](O)[C@H]2C(=O)O | 422 | 452 | 461 | 468 | 458 | 465 | 450 | 443 | 465 |
| COc1ccc(C(C)=O)c(O)c1 | 350 | 366 | 381 | 422 | 421 | 423 | 439 | 450 | 462 |
| CC(C)C(=O)Nc1ccc([N+](=O)[O-])c(C(F)(F)F)c1 | 332 | 309 | 320 | 350 | 360 | 378 | 453 | 472 | 461 |
| FC1=CC=C(SC/2=N/N3\C=N/C(=O)/C(=C3/C=C2)C4=C(Cl)C=CC=C4Cl)C(=C1)F | 457 | 463 | 466 | 454 | 436 | 452 | 409 | 435 | 398 |
| OC1=CC2=C(C(=C1)O)C(=O)\C=C(/O2)C3=CC=CC=C3 | 450 | 453 | 456 | 441 | 443 | 446 | 429 | 410 | 423 |
| Cc1ccc([S+](=O)([O-])N[C@@H](Cc2ccccc2)C(=O)CCl)cc1 | 463 | 434 | 450 | – | – | – | 427 | 429 | 420 |
| CN(NC(=O)CC(=O)NN(C)C(=S)c1ccccc1)C(=S)c1ccccc1 | 207 | 197 | 178 | 216 | 204 | 217 | – | – | – |
| O=C1c2c(O)ccc(O)c2C(=O)c2c(NCCNCCO)ccc(NCCNCCO)c21 | – | – | – | 286 | 280 | 296 | 251 | 261 | 261 |
| N[C@H](CSC(c1ccccc1)(c1ccccc1)c1ccccc1)C(=O)O | 470 | 466 | 465 | 472 | 437 | 470 | – | – | – |
| CCN1\C=C(\C(O)=O)C(=O)C2=CC=C(C)N=C12 | – | – | – | 466 | 426 | 427 | 397 | 425 | 410 |
| C\C1=C(\C=C(\C#N)C(=O)N1)C2=CC=NC=C2 | 474 | 464 | 468 | – | – | – | 418 | 471 | 460 |
| COc1ncc(-c2ccc3nccc(-c4ccnnc4)c3c2)cc1N[S+](=O)([O-])c1ccc(F)cc1F | 303 | 279 | 297 | 354 | 266 | 310 | – | – | – |
